Reference: patent publication US8399490B2, “Insecticides” (Syngenta Crop Protection LLC, priority 2007, dated 2013)

Key:
Assay type in all cases: in vivo
[1] = tested on: Plutella xylostella (diamond back moth); assay: Example B3: Plutella xylostella (larvicide, feeding/residual contact activity, preventive), artificial diet MTP; conditions: 120 h, L2 larvae on artificial diet, 5 days incubation
Experimental: (§1) Plutella xylostella (Diamond Back Moth) (Larvicide, Feeding/Residual Contact Activity, Preventive) 24-well microtiter plate (MTP) with artificial diet is treated with test solutions by pipetting. After drying, the MTP's are infested with larvae (L2) (10-15 per well). After an incubation period of 5 days, samples are checked for larval mortality, antifeedant and growth regulation.

[2] = tested on: Spodoptera littoralis (Egyptian cotton leafworm); assay: Example B1: Activity against Spodoptera littoralis (larvicide, feeding/residual contact activity, preventive), cotton leaf discs; conditions: foliar, 72 h, L1 larvae on cotton leaf discs, 3 days after treatment
Excerpt: Activity Against Spodoptera littoralis (Egyptian Cotton Leafworm)
(Larvicide, Feeding/Residual Contact Activity, Preventive)
The samples are checked for mortality, repellent effect, feeding behaviour, and growth regulation 3 days after treatment. In this test, compounds listed in Table P above show good activity. In particular compounds P.1, P.2, P.3, P.4, P.5, P.6, P.7, P.8, P.9, P.10, P.11, P.12, P.13, P.14, P.15, P.16, P.17, P.18, P.19, P.20, P.21, P.22, P.23, P.24, P.25, P.26, P.27, P.28, P.29, P.30, P.31, P.32, P.33, P.34, P.35, P.36, P.37, P.38, P.39, P.40, P.41, P.42, P.43, P.44, P.46, P.50, P.51, P.52, P.55, P.56, P.57, P.58, P.59, P.60, P61, P.66, P.67, P.68, P.69, P.70, P.71, P.72, P.73, P.74, P.75, P.76, P.77, P.78, P.83, P.84, P.87 and P.88 show an activity of over 80% at a concentration of 400 ppm.

[3] = tested on: Diabrotica balteata (corn root worm); assay: Example B4: Diabrotica balteata (larvicide, feeding/residual contact activity, preventive), artificial diet MTP; conditions: 120 h, L2 larvae on artificial diet, 5 days incubation
Experimental: as §1, with “Diabrotica balteata (Corn Root Worm)” for “Plutella xylostella (Diamond Back Moth)”, “(6-10” for “(10-15”

[4] = tested on: Heliothis virescens (tobacco budworm); assay: Example B2: Activity against Heliothis virescens (ovo-larvicide, feeding/contact activity, curative), eggs on artificial diet; conditions: 96 h, 4 days incubation
Experimental: Activity Against Heliothis virescens (Tobacco Budworm) (Ovo-Larvicide, Feeding/Contact Activity, Curative) Eggs (0-24 h old) are placed in 24-well microtiter plate on artificial diet and treated with test solutions by pipetting. After an incubation period of 4 days, samples are checked for egg mortality, larval mortality, and growth regulation.

Measured: pest or weed control at 400 ppm

CC(C)NC(=O)c1c(NC(=O)c2cc(C(F)(F)F)nn2-c2ncccc2Cl)c(Cl)cc2c1C(O)CC2 (stereo not shown) [P.48]
> 80%: [1]

CC(C)NC(=O)c1c(NC(=O)c2cc(Br)nn2-c2ncccc2Cl)c(Cl)cc2c1OCO2 [P.10]
> 80%: all assays above

CNC(=O)c1c(NC(=O)c2cc(Br)nn2-c2ncccc2Cl)ccc2c1S(=O)(=O)C(C)C2 (stereo not shown) [P.59]
> 80%: [2] | [1] | [4]

O=C(NC1(C2CC2)CC1)c1c(NC(=O)c2cc(Br)nn2-c2ncccc2Cl)c(Cl)cc2c1C(F)CC2 (stereo not shown) [P.55]
> 80%: [2] | [1] | [4]

CC(C)NC(=O)c1c(NC(=O)c2cc(Br)nn2-c2ncccc2Cl)c(Br)cc2c1S(=O)(=O)C(C)C2 (stereo not shown) [P.87]
> 80%: [2] | [1] | [4]

O=C1CCc2cc(Cl)c(NC(=O)c3cc(Br)nn3-c3ncccc3Cl)c(C(=O)NC3(C4CC4)CC3)c21 [P.53]
> 80%: [1]

Cc1cc2c(c(C(=O)NC(C)(C)C)c1NC(=O)c1cc(C(F)(F)F)nn1-c1ncccc1Cl)OCO2 [P.70]
> 80%: all assays above

CC(C)NC(=O)c1c(NC(=O)c2cc(C(F)F)nn2-c2ncccc2Cl)c(Br)cc2c1OC(C)C2 (stereo not shown) [P.84]
> 80%: [2] | [1] | [4]

CC(C)NC(=O)c1c(NC(=O)c2cc(Br)nn2-c2ncccc2Cl)c(Br)cc2c1OC(F)(F)O2 [P.42]
> 80%: all assays above

CNC(=O)c1c(NC(=O)c2cc(OC)nn2-c2ncccc2Cl)c(Br)cc2c1OC(F)(F)O2 [P.39]
> 80%: all assays above

CNC(=O)c1c(NC(=O)c2cc(OC)nn2-c2ncccc2Cl)c(C)cc2c1OC(F)(F)O2 [P.35]
> 80%: [2] | [1] | [4]

Cc1cc2c(c(C(=O)NC(C)C)c1NC(=O)c1cc(C(F)(F)F)nn1-c1ncccc1Cl)OC(F)(F)O2 [P.44]
> 80%: all assays above

Cc1cc2c(c(C(=O)NC3(C4CC4)CC3)c1NC(=O)c1cc(Br)nn1-c1ncccc1Cl)OC(F)(F)O2 [P.28]
> 80%: all assays above

COc1cc(C(=O)Nc2c(Br)cc3c(c2C(=O)NC(C)C)OC(F)(F)O3)n(-c2ncccc2Cl)n1 [P.40]
> 80%: all assays above

Cc1cc2c(c(C(=O)NC3(C4CC4)CC3)c1NC(=O)c1cc(C(F)(F)F)nn1-c1ncccc1Cl)OCO2 [P.69]
> 80%: all assays above

O=C(NC1(C2CC2)CC1)c1c(NC(=O)c2cc(C(F)(F)F)nn2-c2ncccc2Cl)c(Cl)cc2c1C(O)CC2 (stereo not shown) [P.51]
> 80%: [2] | [1] | [4]

CCc1cc2c(c(C(=O)NC(C)C)c1NC(=O)c1cc(Br)nn1-c1ncccc1Cl)OC(F)(F)O2 [P.34]
> 80%: [2] | [1] | [4]

CNC(=O)c1c(NC(=O)c2cc(Cl)nn2-c2ncccc2Cl)c(Cl)cc2c1OCO2 [P.9]
> 80%: [2] | [1] | [4]

CC(C)NC(=O)c1c(NC(=O)c2cc(Br)nn2-c2ncccc2Cl)c(Cl)cc2c1C(F)CC2 (stereo not shown) [P.56]
> 80%: [2] | [1] | [4]

Cc1cc2c(c(C(=O)NC(C)C)c1NC(=O)c1cc(C(F)(F)F)nn1-c1ncccc1Cl)OCO2 [P.67, 5-methyl-6-{[2-(3-chloro-pyridin-2-yl)-5-trifluoromethyl-2H-pyrazole-3-carbonyl]-amino}-2,4-dioxolane-benzoic acid isopropylamide]
> 80%: all assays above

CC(C)NC(=O)c1c(NC(=O)c2cc(OCC(F)(F)F)nn2-c2ncccc2Cl)c(Cl)cc2c1OCO2 [P.57]
> 80%: all assays above

CNC(=O)c1c(NC(=O)c2cc(OC)nn2-c2ncccc2Cl)c(Cl)cc2c1OC(F)(F)O2 [P.37]
> 80%: all assays above

Cc1cc2c(c(C(=O)NCC3CC3)c1NC(=O)c1cc(C(F)(F)F)nn1-c1ncccc1Cl)OC(F)(F)O2 [P.46]
> 80%: all assays above

CCc1cc2c(c(C(=O)NC)c1NC(=O)c1cc(Br)nn1-c1ncccc1Cl)OC(F)(F)O2 [P.33]
> 80%: [2] | [1] | [4]

CCNC(=O)c1c(NC(=O)c2cc(Cl)nn2-c2ncccc2Cl)c(Cl)cc2c1OCO2 [P.8]
> 80%: all assays above

COc1cc(C(=O)Nc2c(Cl)cc3c(c2C(=O)NC2(C4CC4)CC2)OCO3)n(-c2ncccc2Cl)n1 [P.7]
> 80%: [2] | [1] | [4]

CC(C)NC(=O)c1c(NC(=O)c2cc(Br)nn2-c2ncccc2Cl)ccc2c1S(=O)(=O)C(C)C2 (stereo not shown) [P.60]
> 80%: all assays above

CC(C)NC(=O)c1c(NC(=O)c2cc(C(F)(F)F)nn2-c2ncccc2Cl)c(Cl)cc2c1C(F)CC2 (stereo not shown) [P.49]
> 80%: [1] | [3] | [4]

O=C(NC1(C2CC2)CC1)c1c(NC(=O)c2cc(Br)nn2-c2ncccc2Cl)c(Cl)cc2c1OCO2 [P.11]
> 80%: all assays above

Cc1cc2c(c(C(=O)NC3(C4CC4)CC3)c1NC(=O)c1cc(Cl)nn1-c1ncccc1Cl)OC(F)(F)O2 [P.32]
> 80%: all assays above

Cc1cc2c(c(C(=O)NC(C)C)c1NC(=O)c1cc(Br)nn1-c1ncccc1Cl)OCO2 [P.75]
> 80%: all assays above

CC(C)NC(=O)c1c(NC(=O)c2cc(Br)nn2-c2ncccc2Cl)c(Cl)cc2c1C(O)CC2 (stereo not shown) [P.54]
> 80%: [1] | [3] | [4]

CCNC(=O)c1c(NC(=O)c2cc(C(F)F)nn2-c2ncccc2Cl)c(C)cc2c1OCO2 [P.72]
> 80%: [2] | [1] | [4]

CC(C)NC(=O)c1c(NC(=O)c2cc(C(F)(F)F)nn2-c2ncccc2Cl)c(Cl)cc2c1/C(=N/O)CC2 [P.52]
> 80%: [2] | [1] | [4]

CC1Cc2ccc(NC(=O)c3cc(Br)nn3-c3ncccc3Cl)c(C(=O)NC3CC3)c2S1(=O)=O (stereo not shown) [P.61]
> 80%: [2] | [1] | [4]

CCNC(=O)c1c(NC(=O)c2cc(OCC(F)(F)F)nn2-c2ncccc2Cl)c(Cl)cc2c1OCO2 [P.58]
> 80%: [2] | [1] | [4]
